Laboratory results as given in patent US4923990A, “Pyrindamycins A and B and duocarmycin A antibiotics derived from certain streptomyces culture” (priority 1986, dated 1990).
Converted amounts (≈) assume the structure as drawn. Like-named read-outs stand apart in the source and are kept apart here.

Key:
Sarcoma 180 solid tumor = format: in vivo, male ddY-strain mice; conditions: for Average Tumor Volume / T/C (average tumor volume treated/control): day 10
Description: (1) Therapeutic effect against Sarcoma 180 solid tumor
Six male ddY-strain mice each having a weight of about 20 g were used for each group as test animals, and 5×10^6 cells of Sarcoma 180 ascites tumor were implanted subcutaneously into the animals at the axilla. 0.2 ml of phosphate buffered saline (hereinafter referred to as PBS) containing DC-88A or DC-89Al at the concentrations shown in Tables 3 and 4 was administered once intraperitoneally 24 hours after implantation.
The composition of PBS was 0.8 g/dl NaCl, 0.02 g/dl KCl, […] Na2 HPO4 and 0.02 g/dl KH2 PO4 (pH 7.2).
The average tumor volume (mm^3) and T/C [T: average tumor volume of the groups treated with the test compound (mm^3), C: that of control group which received an intraperitoneal administration of 0.2 ml of PBS solution (mm^3)] were determined ten days after implantation.
For comparison, 0.2 ml of PBS containing mitomycin C was intraperitoneally administered to a group of animals 24 hours after tumor implantation.

[1] = test system: lymphocytic leukemia P388 tumor; test: Therapeutic effect on lymphocytic leukemia P388 tumor; format: in vivo, male CDF1 mice
Description: (2) Therapeutic effect on lymphocytic leukemia P388 tumor
Five male CDF1 mice each having a weight of about 22 g were used for each group as test animals, and 1×10^6 cells of lymphocytic leukemia P388 tumor were implanted intraperitoneally into the test animals. […] The mean survival days after implantation and increased life span (T/C) (T: mean survival days for the treated groups, C: mean survival days for the control group) were calculated.
For comparison, 0.2 ml of PBS solution containing mitomycin C was intraperitoneally administered to a group of animals 24 hours after tumor implantation.

[2] = test system: Salmonella typhi ATCC 9992; test: Minimum inhibitory concentration, agar dilution method; format: cell-based; conditions: Salmonella enterica, pH 7
Description: (§1) (A) Minimum inhibitory concentration against various microorganisms (MIC μg/ml)
(§2) The antibacterial activity was measured by the agar dilution method, using a medium (pH 7) prepared by dissolving 3 g of Bacto-Tryptone (Manufacturedby Difco Co., Ltd.), 3 g of meat extract, 1 g of yeast extract, 1 g of glucose and 16 g of agar in 1 l of water.

[3] = test system: Staphylococcus aureus ATCC 6538P; test: as above; format: cell-based; conditions: ATCC6538P, pH 7
Description: as §1, §2

[4] = test system: Bacillus subtilis No. 10707; test: as above; format: cell-based; conditions: pH 7
Description: as §1, §2

Escherichia coli ATCC 26 = test: as above; format: cell-based; conditions: ATCC26, pH 7
Description: as §1, §2

[5] = test system: Klebsiella pneumoniae ATCC 10031; test: as above; format: cell-based; conditions: ATCC10031, pH 7
Description: as §1, §2

Solubility = format: physicochemical
Acute toxicity = conditions: mouse, in vivo, ip; intraperitoneal administration to mice
[6] = test system: Shigella sonnei ATCC 9290; test: Minimum inhibitory concentration, agar dilution method; format: cell-based; conditions: ATCC9290, pH 7
Description: as §1, §2

[7] = methanol, ethanol, acetone, chloroform, ethyl acetate, DMSO

SMILES: CO[C@@]12[C@H](COC(N)=O)C3=C(C(=O)C(C)=C(N)C3=O)N1C[C@@H]1N[C@@H]12 [Mitomycin C, mitomycin C, reference compound]
- Average Tumor Volume (Sarcoma 180 solid tumor; 6 mg/kg ip 24 h after implantation, control 1828.0): 499.6 mm^3
- T/C (average tumor volume treated/control) (Sarcoma 180 solid tumor; 6 mg/kg ip): 0.27
- Increased Life Span (T/C) ([1]; 6.0 mg/kg ip): 1.60
- Mean Survival Days ([1]; 6.0 mg/kg ip 24 h after implantation, control 10.7): 17.2 days

SMILES: COC(=O)C1(C)Nc2c(O)cc3c(c2C1=O)CC(Cl)CN3C(=O)c1cc2cc(OC)c(OC)c(OC)c2[nH]1 (stereo not drawn) [DC-89Al, duocarmycin Cl]
- Average Tumor Volume (Sarcoma 180 solid tumor; 0.78125 mg/kg ip once 24 h after implantation, control 1828.0): 1409.5 mm^3
- T/C (average tumor volume treated/control) (Sarcoma 180 solid tumor; 0.78125 mg/kg ip once): 0.77
- Toxic (printed in column Average Tumor Volume) (Sarcoma 180 solid tumor; 1.5625 mg/kg ip once 24 h after implantation): Toxic
- MIC [2]: > 100 µg/mL
- MIC [3]: > 8.4 µg/mL
- MIC [4]: 0.07 µg/mL (≈ 0.129 µM)
- MIC (Escherichia coli ATCC 26): > 100 µg/mL
- MIC [5]: 4.2 µg/mL (≈ 7.72 µM)
- Increased Life Span (T/C) ([1]; 0.125 mg/kg ip once): 1.28
- Mean Survival Days ([1]; 0.125 mg/kg ip once 24 h after implantation, control 10.7): 13.8 days
- Increased Life Span (T/C) ([1]; 0.25 mg/kg ip once): 1.38
- Mean Survival Days ([1]; 0.25 mg/kg ip once 24 h after implantation, control 10.7): 14.8 days
- Increased Life Span (T/C) ([1]; 0.5 mg/kg ip once): 1.40
- Mean Survival Days ([1]; 0.5 mg/kg ip once 24 h after implantation, control 10.7): 15.0 days
- Increased Life Span (T/C) ([1]; 1 mg/kg ip once): 1.23
- Mean Survival Days ([1]; 1 mg/kg ip once 24 h after implantation, control 10.7): 13.2 days
- Solubility (Solubility; [7]): readily soluble
- Solubility (Solubility; water and hexane (n-hexane)): sparingly soluble
- LD50 (Acute toxicity): ~1.17 mg/kg

SMILES: COC(=O)C1(C)NC2=C(C1=O)C13CC1CN(C(=O)c1cc4cc(OC)c(OC)c(OC)c4[nH]1)C3=CC2=O (stereo not drawn) [DC-88A, duocarmycin A]
- Average Tumor Volume (Sarcoma 180 solid tumor; 0.195 mg/kg ip once 24 h after implantation, control 2124.7): 1104.8 mm^3
- T/C (average tumor volume treated/control) (Sarcoma 180 solid tumor; 0.195 mg/kg ip once): 0.52
- Average Tumor Volume (Sarcoma 180 solid tumor; 0.39 mg/kg ip once 24 h after implantation, control 2124.7): 849.9 mm^3
- T/C (average tumor volume treated/control) (Sarcoma 180 solid tumor; 0.39 mg/kg ip once): 0.40
- Average Tumor Volume (Sarcoma 180 solid tumor; 0.78 mg/kg ip once 24 h after implantation, control 2124.7): 467.4 mm^3
- T/C (average tumor volume treated/control) (Sarcoma 180 solid tumor; 0.78 mg/kg ip once): 0.22
- MIC [2]: 10 µg/mL (≈ 19.7 µM)
- MIC [3]: 0.05 µg/mL (≈ 0.0985 µM)
- MIC [4]: 0.05 µg/mL (≈ 0.0985 µM)
- MIC [6]: 40 µg/mL (≈ 78.8 µM)
- MIC (Escherichia coli ATCC 26): 20 µg/mL (≈ 39.4 µM)
- MIC [5]: 0.5 µg/mL (≈ 0.985 µM)
- Increased Life Span (T/C) ([1]; 0.024 mg/kg, continuous administration for five days): 1.43
- Mean Survival Days ([1]; 0.024 mg/kg, continuous administration for five days, control 11.0): 15.7 days
- Increased Life Span (T/C) ([1]; 0.098 mg/kg ip once): 1.08
- Mean Survival Days ([1]; 0.098 mg/kg ip once 24 h after implantation, control 11.0): 11.9 days
- Increased Life Span (T/C) ([1]; 0.195 mg/kg ip once): 1.15
- Mean Survival Days ([1]; 0.195 mg/kg ip once 24 h after implantation, control 11.0): 12.7 days
- Increased Life Span (T/C) ([1]; 0.39 mg/kg ip once): 1.14
- Mean Survival Days ([1]; 0.39 mg/kg ip once 24 h after implantation, control 11.0): 12.5 days
- Increased Life Span (T/C) ([1]; 0.78 mg/kg ip once): 1.12
- Mean Survival Days ([1]; 0.78 mg/kg ip once 24 h after implantation, control 11.0): 12.3 days
- Solubility (Solubility; [7]): Soluble
- Solubility (Solubility; water and hexane (n-hexane)): sparingly soluble
- LD50 (Acute toxicity): ~0.94 mg/kg
